Among the test systems are IGROV-1; UACC-257; HOP-62; NCI/ADR-RES; NCI-H522; LOX IMVI; SNB-19; T47D; NCI-H226; A498; MDA-MB-435; DU-145; TK-10; OVCAR-8; MDA-N; HL-60; U-251; MCF7; PC-3; SW-620.
Test in all cases: NCI anticancer screen, dose series, 48 h

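Five compound concentrations were applied to cells in 96-well plates for 48 hours; endpoints were derived by simple linear interpolation of the resulting dose-response curve. GI50 = concentration required for 50% inhibition of growth.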 Activity calls are given as the source filed them. No stated cut-off is given here; in the data, active = GI50 up to about 1.1 µM and inactive = higher. Some results are limits rather than exact numbers.

These results are taken from ChEMBL document CHEMBL1201862, “PubChem BioAssay data set” (2004).

Turning to `CCc1nc(N)nc(N)c1-c1ccc2nn(-c3ccccc3)[n+]([O-])c2c1`, the GI50 is 1.67 µM (inactive) in the test on IGROV-1; 10.6 µM (inactive) with UACC-257; 5.82 µM (inactive) with HOP-62; 3.13 µM (inactive) in the test on NCI/ADR-RES; 2.83 µM (inactive) in the test with NCI-H522; 1.01 µM (active) in the test on LOX IMVI. Besides, the GI50 in the test on SNB-19 was 16.3 µM (inactive); in the test with T47D, 13.1 µM (inactive); in the test on NCI-H226 it was 14.5 µM (inactive); in the test with A498, 8.43 µM (inactive); in the test with MDA-MB-435 it was 1.27 µM (inactive); in the test on DU-145, 6.14 µM (inactive). Further, the GI50 in the test with TK-10 is 15 µM (inactive); with OVCAR-8, 2.42 µM (inactive); in the test with MDA-N it was 0.895 µM (active); in the test with HL-60, 0.902 µM (active); with U-251 it was 2.58 µM (inactive); in the test on MCF7, 4.17 µM (inactive). Besides, the GI50 in the test with PC-3 is 1.23 µM (inactive); with SW-620 it was 0.869 µM (active).

As for `O=C(O)c1cc(C(=O)O)cc(N2C(=O)c3ccccc3C2=O)c1`, the GI50 in the test with IGROV-1, with UACC-257, with HOP-62, with NCI/ADR-RES, with NCI-H522 and with LOX IMVI was > 100 µM (inactive) each time. In addition, the GI50 in the test on SNB-19, in the test with T47D, in the test with NCI-H226, with A498, with MDA-MB-435 and in the test on DU-145 was > 100 µM (inactive) throughout. For the same compound, the GI50 in the test with TK-10, in the test on OVCAR-8, in the test with MDA-N, in the test on HL-60, with U-251 and in the test on MCF7 was > 100 µM (inactive) each time. Besides, the GI50 in the test on PC-3 and in the test with SW-620 was > 100 µM (inactive) throughout.

For `O=P(NC12CC3CC(CC(C3)C1)C2)(N1CC1)N1CC1`, the GI50 was > 92.9 µM (inactive) in the test on IGROV-1; > 100 µM (inactive) with UACC-257; 12.8 µM (inactive) with HOP-62; 53 µM (inactive) in the test with NCI/ADR-RES; 25.7 µM (inactive) in the test with NCI-H522; 11.1 µM (inactive) with LOX IMVI. Further, the GI50 is 17.1 µM (inactive) in the test on SNB-19; 94.8 µM (inactive) in the test with T47D; 41.6 µM (inactive) in the test with NCI-H226; 45.5 µM (inactive) with A498; > 100 µM (inactive) in the test with MDA-MB-435; 6.31 µM (inactive) in the test with DU-145. The GI50 with TK-10 was > 100 µM (inactive); in the test with OVCAR-8, 43 µM (inactive); with MDA-N it was > 100 µM (inactive); with HL-60 it was 3.09 µM (inactive); in the test on U-251 it was 27.4 µM (inactive); with MCF7 it was 9.71 µM (inactive). The values for the GI50 in the test with PC-3 and in the test on SW-620 were > 100 µM (inactive) and > 86.5 µM (inactive), respectively.
